Test results published in patent US11413348B2, “Low molecular weight cationic lipids for oligonucleotide delivery” (SIRNA THERAPEUTICS, INC., priority 2010, dated 2022).

Assays:
ApoE = target: T1, ApoE (Macaca mulatta, UniProt Q28502); experiment: In vitro ApoE binding assay (anti-PEG capture, ApoE ELISA, stem-loop RT-PCR); conditions: LNP 4 ug/mL in 90% rhesus serum, 37° C., 20 minutes; estimate of 500 siRNA per LNP
T1 construct: from tissue; host or cells: rhesus serum
Procedure: LNPs are incubated at 37° C. in 90% rhesus serum at a final LNP concentration of 4 ug/mL. Incubation is for 20 minutes with orbital rotation. After incubation, the samples are diluted 1:20 in PBS and 100 uL of each diluted sample is aliquoted to wells of an anti-PEG antibody coated 96-well plate (Life Diagnostics Cat. No. P-0001PL. After incubation at room temperature for 1 hour, the plate is washed 5× with 300 uL PBS. After washing, 50 uL of 0.2% Triton X-100 is added to each well and the plate incubated at 37° C. for 10 minutes, followed by shaking on a plate shaker for 1 minute at 750 rpm. Samples are frozen prior to performing the ApoE ELISA and stem loop PCR analysis of samples.
An ApoE ELISA assay is performed to quantitate ApoE bound to the LNPs after incubation in rhesus serum. Anti-ApoE antibody (Milipore, Cat No. AB947) is diluted 1:1000 in PBS and 100 uL of diluted antibody is added to each well of a polystyrene high binding plate. The plate with antibody is incubated overnight at 4° C., after which the plate is washed 2× with 200 uL of PBS. Next, 200 uL of buffer containing 1% BSA and 0.05% Tween-20 in PBS (Incubation Buffer) is added to each well followed by incubation at room temperature for 1 hour. Plates are washed 5× with PBS containing 0.05% Tween-20. Frozen Triton lysis test samples are thawed and diluted 1:6 with incubation buffer and 100 uL of test sample is aliquoted to wells of the ApoE antibody plate. Incubation is for 1 hour at room temperature followed by a 5× wash with PBS containing 0.05% Tween-20. After washing, 100 uL of biotinylated anti-ApoE antibody (Mabtech, Cat. ANo. E887-biotin), diluted 1:500 in incubation buffer, is added to each well and incubated for 1 hour at room temperature, followed by a 5× wash with 0.05% Tween-20 in PBS. 100 uL per well, of Streptavidin-HPR (Thermo, Cat. No. TS-125-HR), is then added and incubated for 1 hour at room temperature. After washing 5× with 0.05% Tween-20 in PBS, 100 uL of TMB Substrate (Thermo, Cat. No. 34028) is added to each well, followed by incubation at room temperature for 20 minutes in the dark. The calorimetric reaction is slopped with 100 uL of TMB Stop Solution (KPL, Cat. No. 50-85-04) and absorbance at 450 nm is determined. An ApoE standard curve is prepared by diluting rhesus Recombinant ApoE in incubation buffer with 0.03% Triton X-100 with concentrations ranging from 100 ng/mL to 0.78 ng/mL. ApoE standards are evaluated in the ELISA in parallel to the test samples. A rhesus serum only (no LNP) control is utilized to obtain a background subtraction for non-LNP dependent ApoE signal in the ELISA.
To normalize to the ApoE bound to the amount of LNP bound to the anti-PEG antibody plate, the amount of siRNA retained in the anti-PEG antibody well is quantitated by stem-loop PCR and related to the number of siRNAs encapsulated per LNP, to give an approximate measure of total LNP particles bound per well.
The standard curve is prepared using the molecular weight of the siRNA (13693 g/mol for ApoB 17063) to calculate the copy number. The high standard should contain 10^11 copies per 3 μl. A 10-fold serial dilution is performed across a row of an assay plate until the lowest standard contains 10^2 copies per 3 μl. Dilute 0.2% Triton X-100 1:80 in water and pipette 20 uL of the diluted Triton X-100 into 10 wells of a 96 well plate. 30 uL of the serial diluted standard curve and mix are added to each well of the plate. 10 uL of the spiked standard curve is used in the reverse transcription reaction.
Triton lysates from the PEG antibody plate capture are diluted 1 to 2000 in nuclease free water. 10 uL of ‘RT-Primer Mix’ (Applied Biosystem's TaqMan MicroRNA Reverse Transcription Kit Cat. No. 4366596) is added to each well of a 96-well Micro-Amp QPCR plate (ABI Cat #N801-0560).
[…] of each test sample (diluted 1 to 2000) or spiked standard curve (above) are aliquoted into the 96-well plate. […]

[1] = Determination of cationic lipid levels in monkey liver (LC/MS-MS); format: in vivo; conditions: monkeys, FIG. 7
Procedure: Liver tissue was weighed into 20-ml vials and homogenized in 9 v/w of water using a GenoGrinder 2000 (OPS Diagnostics, 1600 strokes/min, 5 min). A 50 μL aliquot of each tissue homogenate was mixed with 300 μL of extraction/protein precipitating solvent (50/50 acetonitrile/methanol containing 500 nM internal standard) and the plate was centrifuged to sediment precipitated protein. A volume of 200 μL of each supernatant was then transferred to separate wells of a 96-well plate and 10 μl samples were directly analyzed by LC/MS-MS.
Standards were prepared by spiking known amounts of a methanol stock solution of compound into untreated rat liver homogenate (9 vol water/weight liver). Aliquots (50 μL) each standard/liver homogenate was mixed with 300 μL of extraction/protein precipitating solvent (50/50 acetonitrile/methanol containing 500 nM internal standard) and the plate was centrifuged to sediment precipitated protein. A volume of 200 μL of each supernatant was transferred to separate wells of a 96-well plate and 10 μl of each standard was directly analyzed by LC/MS-MS.
Absolute quantification versus standards prepared and extracted from liver homogenate was performed using an Aria LX-2 HPLC system (Thermo Scientific) coupled to an API 4000 triple quadrupole mass spectrometer (Applied Biosystems). […]

T1 sequence (Q28502 19-295): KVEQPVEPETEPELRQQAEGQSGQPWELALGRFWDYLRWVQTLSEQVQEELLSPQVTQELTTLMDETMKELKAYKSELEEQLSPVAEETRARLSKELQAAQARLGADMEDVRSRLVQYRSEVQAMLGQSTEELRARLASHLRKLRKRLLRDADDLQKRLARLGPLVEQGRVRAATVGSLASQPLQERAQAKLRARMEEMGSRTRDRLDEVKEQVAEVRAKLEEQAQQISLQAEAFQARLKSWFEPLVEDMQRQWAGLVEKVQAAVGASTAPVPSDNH

Structure (SMILES): CCCCC/C=C\C/C=C\CCCCCCCCCC(CCCCCCCCC)CCN(C)C (stereo not shown) [Compound 32, (13Z,16Z)—N,N-dimethyl-3-nonyldocosa-13,16-dien-1-amine]
- ApoE Molecules/LNP (ApoE): 12.8 Molecules/LNP
- cationic lipid liver levels compared with RDV containing DLinKC2DMA (Compound 45) or MC3 (Compound 46) [1]: lower than

Structure (SMILES): CCCCCCCCCC(CCCCCCCC1CC1CCCCCCCC)N(C)C [Compound 33, N,N-dimethyl-1-[(1S,2R)-2-octylcyclopropyl]hepladecan-8-amine]
- ApoE Molecules/LNP (ApoE): 18.1 Molecules/LNP
- cationic lipid liver levels compared with RDV containing DLinKC2DMA (Compound 45) or MC3 (Compound 46) [1]: lower than
